According to patent US20240228490A1, “HETEROCYCLIC DERIVATIVE INHIBITOR AND PREPARATION METHOD THEREFOR AND APPLICATION THEREOF” (Shanghai Hansoh Biomedical Co., Ltd., priority 2021, published 2024):
Read-outs that look alike come from different tables or passages of the source.

What was measured:
[1] = PK part of PK/PD study in MDA-MB-436 subcutaneous xenograft model: plasma and tumor concentration; type: in vivo, BALB/c nude mice; details: female, BALB/c nude, mouse, single oral 0.3 mg/kg
Source text: • a. […] Cells were passaged once every three days. […] The resulting suspension was placed in an ice box for later use.
• a. […] During the inoculation, the cell suspension was mixed well. […] The nude mouse was bound with the left hand. […] Inoculation started after 30 seconds. • d.
• a. Grouping: According to the growth of the tumor, when the tumor grew to a volume of 300-500 mm^3, tumor-bearing mice were selected according to the experimental design and randomly grouped (3 mice per each time point) to start the PK/PD test. • b. Fasting: All tumor-bearing mice were fasted (with free access to water) overnight (fasting >8 hours) before the administration. • c. Administration: Except for the blank control group, a single oral administration was carried out according to the time of the experimental design, and the administration volume was 10 mL/kg. • d. Sample collection: The mice were euthanized by CO2 asphyxiation according to the time of the experimental design, and the samples were collected. One plasma sample and three tumor tissue samples were collected from each animal.
Plasma collection: After the mouse was euthanized, blood was collected from the heart. The collected blood was added to a centrifuge tube containing EDTA-K2. The tube was manually inverted 3 to 4 times, placed on ice, and centrifuged at 8000 rpm at 4° C. for 5 minutes. 100 μL of the centrifuged plasma was transferred to a new labeled centrifuge tube. One aliquot of plasma was quickly freezed on dry ice, and stored in a refrigerator at −80±10° C. for PK test.
Tumor tissue collection: After the blood collection, the tumor tissue was collected. The collected tumor tissue was divided into 3 aliquots (˜0.1 g each), placed into labeled 2 mL centrifuge tubes, and stored in a refrigerator at −80±10° C. for PK or PD test.
a. Sample Process: • 1) 4 parts by weight of 20% methanol in water was added to 1 part by weight of the tumor tissue sample, and homogenized at 40 Hz for 400 seconds.

[2] = Bidirectional permeability through Caco-2 cell model; details: human
Experimental: 100 μL of transport buffer (HBSS containing 10 μM test compound, 0.5% BSA, and 0.5% DMSO) was added to the administration end of A to B • b. 300 μL of transport buffer (HBSS containing 0.5% BSA) was added to the receiving end of A to B • c. 300 μL of transport buffer (HBSS containing 10 μM test compound, 0.5% BSA, and 0.5% DMSO) was added to the administration end of B to A • d. 100 μL of transport buffer (HBSS containing 0.5% BSA) was added to the receiving end of B to A • e. Incubation for 2 hours • d. Samples were taken, processed and detected by mass spectrometry.
• Instrument: liquid chromatography; • Chromatographic column: Waters XSelect HSS T3 C18 (2.1*50 mm, 2.5 μm); • Mobile phase: phase A: water containing 0.1% formic acid; phase B: acetonitrile containing 0.1% formic acid.
• Instrument: API4000 liquid chromatography-mass spectrometer; • Ion source: electrospray ionization source (ESI); • Detection method: positive ion detection; • Scan mode: multiple reaction monitoring (MRM) mode.

PARP1 enzyme = PARP1 enzyme (Homo sapiens (Human), UniProt P09874); assay: Inhibitory activity on PARP1 enzyme (chemiluminescence); type: biochemical
Chain of PARP1 enzyme (P09874 whole entry): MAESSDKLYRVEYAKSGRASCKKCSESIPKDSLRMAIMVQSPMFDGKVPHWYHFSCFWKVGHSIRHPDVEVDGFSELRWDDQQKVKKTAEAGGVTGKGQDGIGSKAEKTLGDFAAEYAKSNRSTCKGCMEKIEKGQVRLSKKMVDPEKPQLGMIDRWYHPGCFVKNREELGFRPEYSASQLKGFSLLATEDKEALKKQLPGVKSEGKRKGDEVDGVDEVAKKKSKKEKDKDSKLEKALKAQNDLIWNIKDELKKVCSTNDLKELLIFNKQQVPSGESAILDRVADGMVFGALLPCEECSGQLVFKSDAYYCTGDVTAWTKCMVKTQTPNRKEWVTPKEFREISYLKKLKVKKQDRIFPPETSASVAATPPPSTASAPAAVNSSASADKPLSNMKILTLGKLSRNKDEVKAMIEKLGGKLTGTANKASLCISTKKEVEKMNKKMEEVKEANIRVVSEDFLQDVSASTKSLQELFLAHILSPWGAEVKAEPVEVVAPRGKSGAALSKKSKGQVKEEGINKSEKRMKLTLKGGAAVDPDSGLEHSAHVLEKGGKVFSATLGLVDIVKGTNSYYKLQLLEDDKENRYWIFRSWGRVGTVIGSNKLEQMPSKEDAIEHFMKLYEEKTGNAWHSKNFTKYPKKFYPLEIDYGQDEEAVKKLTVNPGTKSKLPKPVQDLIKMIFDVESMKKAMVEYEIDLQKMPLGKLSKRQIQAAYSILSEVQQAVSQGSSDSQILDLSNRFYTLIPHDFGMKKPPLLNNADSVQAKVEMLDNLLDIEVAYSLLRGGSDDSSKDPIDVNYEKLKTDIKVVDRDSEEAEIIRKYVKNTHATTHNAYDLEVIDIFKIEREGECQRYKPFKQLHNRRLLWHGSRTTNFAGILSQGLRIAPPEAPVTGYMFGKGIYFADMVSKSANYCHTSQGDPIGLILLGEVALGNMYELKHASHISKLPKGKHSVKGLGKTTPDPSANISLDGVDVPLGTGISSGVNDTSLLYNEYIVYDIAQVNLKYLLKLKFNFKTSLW
Experimental: The inhibitory activity of the compounds on PARP1 enzyme was determined by the chemiluminescence method in the experiment. The experiment was carried out in a 384-well plate. Coating histones in a 384-well plate: 5×histone solution was diluted 5 folds with PBS, added to a 384-well ELISA plate (25 μL per well), and incubated at 4° C. overnight. […] A mixture of PARP reaction biotin-labeled substrate, activated DNA, 10×PARP buffer and water was added (12.5 μL per well). Compound solutions with different concentrations were formulated using the experimental buffer (10% DMSO aqueous solution containing 1.25 mM DTT). The final detection concentration started from 100 nM, with 3-fold dilution and 8 concentrations. The compound solutions were added to the reaction wells of the 384-well plate (2.5 μL per well). 2.5 μL of 10% DMSO aqueous solution containing 1.25 mM DTT was added to the positive control well and blank well (2.5 μL per well). […] The plate was centrifuged at 1000 rpm for 1 minute, and reacted at room temperature for 60 minutes. […] Streptavidin-HRP solution diluted 50 folds with Blocking buffer 3 was added (25 μL per well), and the plate was incubated at room temperature for 30 minutes. […] The luminescence reaction solution obtained by mixing ECL substrate A and ELISA ECL substrate B (1:1) was added (50 μL per well) for reaction. The chemiluminescence values were measured immediately with a BioTek Synergy H1 or Envision instrument.
The chemiluminescence values were measured with a BioTek Synergy H1 or Envision instrument. The inhibition rate was calculated, and the concentration and inhibition rate were fitted to a nonlinear regression curve using Graphpad Prism software to obtain the IC50 value.

[3] = tested on: BRCA2 Knockout DLD-1 cells; assay: Inhibition of proliferation of BRCA2 Knockout DLD-1 cells (CellTiter-Glo); type: cell-based; details: Homo sapiens, about 144 hours incubation
Experimental: BRCA2 Knockout DLD-1 cells were cultured using RPMI1640 culture medium containing 10% FBS to an appropriate cell density. The cells were collected, and adjusted to an appropriate cell concentration using the complete culture medium. The cell suspension was spread on a 96-well plate (90 μL per well), and placed in a 37° C., 5% CO2 incubator overnight. Compound solutions of different concentrations were formulated using DMSO and culture medium, and vehicle control was set up. The compound solutions were added to the 96-well plate (10 μL per well), and the plate was incubated in a 37° C., 5% CO2 incubator for about 144 hours. CellTiter-Glo solution was added, and the plate was shaken to mix evenly, and incubated in the dark for 10 to 30 minutes. The values were measured with a Synergy H1 or Envision microplate reader.
The inhibition rate was calculated using the luminescence signal value. The concentration and inhibition rate were fitted to a nonlinear regression curve using Graphpad Prism software to obtain the IC50 value.

[4] = plasma, read-out: Mean plasma concentration
[5] = tumor tissue, read-out: Mean tumor tissue concentration

Row | SMILES | IC50 (PARP1 enzyme) | IC50 [3] | further results
1 | CCc1cc2ncc(CN3CCN(c4ccc(C(=O)NC)nc4)CC3)cc2[nH]c1=O [AZD5305, reference compound] |  |  | concentration at 1 h [1, 4]: 1460 ng/mL; concentration at 2 h [1, 4]: 1370 ng/mL; concentration at 4 h [1, 4]: 1120 ng/mL; concentration at 6 h [1, 4]: 713 ng/mL; concentration at 8 h [1, 4]: 584 ng/mL; concentration at 16 h [1, 4]: 252 ng/mL; concentration at 24 h [1, 4]: 102 ng/mL; concentration at 32 h [1, 4]: 41 ng/mL; concentration at 48 h [1, 4]: 10 ng/mL; concentration at 72 h [1, 4]: 6 ng/mL; concentration at 1 h [1, 5]: 41 ng/g; concentration at 2 h [1, 5]: 100 ng/g; concentration at 4 h [1, 5]: 131 ng/g; concentration at 6 h [1, 5]: 117 ng/g; concentration at 8 h [1, 5]: 95 ng/g; concentration at 16 h [1, 5]: 94 ng/g; concentration at 24 h [1, 5]: 61 ng/g; concentration at 32 h [1, 5]: 59 ng/g; concentration at 48 h [1, 5]: 44 ng/g; concentration at 72 h [1, 5]: 31 ng/g
2 | CCc1cc2ncc(CN3CCC(c4ccc(C(=O)NC)nc4)CC3)cc2[nH]c1=O [Example 2, 5-(1-((7-Ethyl-6-oxo-5,6-dihydro-1,5-naphthyridin-3-yl)methyl)piperidin-4-yl)-N-methylpicolinamide] |  |  | Papp A→B at 2 h, 10 μM [2]: 9.42 ×10⁻⁶ cm/s; Papp B→A at 2 h, 10 μM [2]: 13.5 ×10⁻⁶ cm/s
3 | CCc1cc2ncc(CN3CC=C(c4ccc(C(=O)NOC)nc4)CC3)cc2[nH]c1=O [Example 30, 1′-((7-Ethyl-6-oxo-5,6-dihydro-1,5-naphthyridin-3-yl)methyl)-N-methoxy-1′,2′,3′,6′-tetra hydro-[3,4′-bipyridine]-6-carboxamide] | 1.4 nM | 3.2 nM | 
4 | CCc1cc2c(C#N)cc(CN3CC=C(c4ccc(C(=O)NC)nc4)CC3)cc2[nH]c1=O [Example 42, 1′-((5-Cyano-3-ethyl-2-oxo-1,2-dihydroquinolin-7-yl)methyl)-N-methyl-1′,2′,3′,6′-tetrahydro-[3,4′-bipyridine]-6-carboxamide] | 1.3 nM | 3 nM | 
5 | CCc1cc2ncc(CN3CC=C(c4ncc(C)n4C)CC3)cc2[nH]c1=O [Example 53, 7-((4-(1,5-Dimethyl-1H-imidazol-2-yl)-3,6-dihydropyridin-1(2H)-yl)methyl)-3-ethyl-1,5-naphthyridin-2(1H)-one] | 0.96 nM | 7.5 nM | 
6 | CCc1cc2ncc(CN3CC=C(c4ccc(C(=O)NC)nc4Cl)CC3)cc2[nH]c1=O [Example 56, 2-Chloro-1′-((7-ethyl-6-oxo-5,6-dihydro-1,5-naphthyridin-3-yl)methyl)-N-methyl-1′,2′,3′,6′-tetrahydro-[3,4′-bipyridine]-6-carboxamide] | 1.3 nM | 1 nM | 
7 | CCc1cc2ncc(CN3CC=C(c4ccc(C(=O)NCC#N)nc4)CC3)cc2[nH]c1=O [Example 58, N-(Cyanomethyl)-1′-((7-ethyl-6-oxo-5,6-dihydro-1,5-naphthyridin-3-yl)methyl)-1′,2′,3′,6′-tetrahydro-[3,4′-bipyridine]-6-carboxamide] | 0.9 nM | 2.4 nM | 
8 | CCc1cc2ncc(CN3CC=C(c4ccc(C(=O)NC5(C#N)CC5)nc4)CC3)cc2[nH]c1=O [Example 59, N-(1-Cyanocyclopropyl)-1′-((7-ethyl-6-oxo-5,6-dihydro-1,5-naphthyridin-3-yl)methyl)-1′,2′,3′,6′-tetrahydro-[3,4′-bipyridine]-6-carboxamide] | 0.8 nM | 2.7 nM | 
9 | CCc1cc2ncc(CN3CCC(c4ccc(C(=O)NC)nc4)=C(F)C3)cc2[nH]c1=O [Example 81, 1′-((7-Ethyl-6-oxo-5,6-dihydro-1,5-naphthyridin-3-yl)methyl)-5′-fluoro-N-methyl-1′,2′,3′,6′-tetrahydro-[3,4′-bipyridine]-6-carboxamide] | 0.9 nM | 1.5 nM | 
10 | CCc1cc2ncc(CN3CC=C(c4ccc(C(=O)NCC(F)(F)F)nc4)CC3)cc2[nH]c1=O [Example 83, 1′-((7-Ethyl-6-oxo-5,6-dihydro-1,5-naphthyridin-3-yl)methyl)-N-(2,2,2-trifluoroethyl)-1′,2′,3′,6′-tetrahydro-[3,4′-bipyridine]-6-carboxamide] | 1.4 nM | 1.4 nM | 
11 | CNC(=O)c1ccc(C2=CCN(Cc3cnc4cc(C(F)(F)F)c(=O)[nH]c4c3)CC2)cn1 [Example 84, N-Methyl-1′-((6-oxo-7-(trifluoromethyl)-5,6-dihydro-1,5-naphthyridin-3-yl)methyl)-1′,2′,3′,6′-tetrahydro-[3,4′-bipyridine]-6-carboxamide] | 2.7 nM | 5.1 nM | 
12 | CCc1cc2ncc(C(C)N3CC=C(c4ccc(C(=O)NC)nc4)CC3)cc2[nH]c1=O (stereo not drawn) [Example 93, 1′-(1-(7-Ethyl-6-oxo-5,6-dihydro-1,5-naphthyridin-3-yl)ethyl)-N-methyl-1′,2′,3′,6′-tetrahydro-[3,4′-bipyridine]-6-carboxamide] | 2.1 nM | 3.6 nM | 
13 | CCc1cc2ncc(CN3CCN(c4cnc5c(NC)ncc(F)c5c4)CC3)cc2[nH]c1=O [Example 94, 3-Ethyl-7-((4-(5-fluoro-8-(methylamino)-1,7-naphthyridin-3-yl)piperazin-1-yl)methyl)-1,5-naphthyridin-2(1H)-one] |  | 8.4 nM | 
14 | [2H]C([2H])([2H])Nc1nccc2cc(N3CCN(Cc4cnc5cc(CC)c(=O)[nH]c5c4)CC3)cnc12 [Example 98, 3-Ethyl-7-((4-(8-((methyl-d3)amino)-1,7-naphthyridin-3-yl)piperazin-1-yl)methyl)-1,5-naphthyridin-2(1H)-one] |  | 1.7 nM | 
15 | CCc1cc2ncc(CN3CC=C(c4cnc5c(NC)nccc5c4)CC3)cc2[nH]c1=O [Example 102, 3-Ethyl-7-((4-(8-(methylamino)-1,7-naphthyridin-3-yl)-3,6-dihydropyridin-1(2H)-yl)methyl)-1,5-naphthyridin-2(1H)-one] |  | 5.2 nM | 
